Measured values reported in PubChem BioAssay AID248 (DTP/NCI, 2004).
Inconclusive results and toxic doses are left out. Cut-off read from the data, not from the text of the source: active = T/C of 150% or more; inactive = T/C below 125%.

Test system: L1210 leukemia ip in BDF1 mice, survival T/C
Experiment: NCI In Vivo Anticancer Drug Screen. Data for tumor model L1210 Leukemia (intraperitoneal) in B6D2F1 (BDF1) mice
Details: endpoint: mean survival time, higher = longer survival
How it was run: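 Each compound was tested against a transplantable tumor grown in mice. The endpoint was survival, with treated animals benchmarked against vehicle controls as a simple ratio.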

[1] = dose: 100.0 mg/kg/injection, schedule: Q01DX009 (ip), vehicle: saline
[2] = dose: 100.0 mg/kg/injection, schedule: Q04DX003 (ip), vehicle: saline
[3] = dose: 200.0 mg/kg/injection, schedule: Q04DX003 (ip), vehicle: saline
[4] = dose: 400.0 mg/kg/injection, schedule: Q04DX003 (ip), vehicle: saline
[5] = dose: 50.0 mg/kg/injection, schedule: Q01DX009 (ip), vehicle: saline with Tween-80
[6] = dose: 100.0 mg/kg/injection, schedule: Q01DX009 (ip), vehicle: saline with Tween-80
[7] = dose: 100.0 mg/kg/injection, schedule: Q04DX002 (ip), vehicle: saline with Tween-80
[8] = dose: 200.0 mg/kg/injection, schedule: Q04DX002 (ip), vehicle: saline with Tween-80
[9] = dose: 400.0 mg/kg/injection, schedule: Q04DX002 (ip), vehicle: saline with Tween-80

Measured: T/C

COC(=O)C(C)=C1CCCCC1
inactive: [1] 106 % of control | [2] 93 % of control | dose: 200.0 mg/kg/injection, schedule: Q01DX009 (ip), vehicle: saline 96 % of control | [3] 98 % of control | dose: 400.0 mg/kg/injection, schedule: Q01DX009 (ip), vehicle: saline 96 % of control | [4] 95 % of control

COc1ccc(N(N=O)C(C)=O)cc1
inactive: dose: 5.0 mg/kg/injection, schedule: Q01DX001 (ip), vehicle: saline 95 % of control | dose: 10.0 mg/kg/injection, schedule: Q01DX001 (ip), vehicle: saline 97 % of control | dose: 20.0 mg/kg/injection, schedule: Q01DX001 (ip), vehicle: saline 106 % of control | dose: 40.0 mg/kg/injection, schedule: Q01DX001 (ip), vehicle: saline 106 % of control

CC(=O)Nc1c(I)c(NC(C)=O)c(I)c(C(=O)O)c1I
inactive: [5] 105 % of control | [6] 99 % of control | dose: 200.0 mg/kg/injection, schedule: Q01DX009 (ip), vehicle: saline with Tween-80 108 % of control

CCOC(=O)c1cc2ccccc2[nH]1
inactive: dose: 50.0 mg/kg/injection, schedule: Q01DX001 (ip), vehicle: Klucel (hydroxypropylcellulose) (HPC) 93 % of control | dose: 100.0 mg/kg/injection, schedule: Q01DX001 (ip), vehicle: Klucel (hydroxypropylcellulose) (HPC) 98 % of control | [7] 97 % of control | dose: 200.0 mg/kg/injection, schedule: Q01DX001 (ip), vehicle: Klucel (hydroxypropylcellulose) (HPC) 93 % of control | [8] 87 % of control | [9] 97 % of control

CC(C)(C)c1ccc(S(=O)(=O)Cl)cc1
inactive: dose: 100.0 mg/kg/injection, schedule: Q04DX002 (ip), vehicle: Klucel (hydroxypropylcellulose) (HPC) 97 % of control | dose: 200.0 mg/kg/injection, schedule: Q04DX002 (ip), vehicle: Klucel (hydroxypropylcellulose) (HPC) 104 % of control | dose: 400.0 mg/kg/injection, schedule: Q04DX002 (ip), vehicle: Klucel (hydroxypropylcellulose) (HPC) 90 % of control

CC(C)(C)c1cc(O)cc(C(C)(C)C)c1
inactive: [7] 100 % of control | [8] 97 % of control | [9] 100 % of control

O=C(Nc1ccc(Cc2ccc(NC(=O)Nc3cccc(C4=NCCN4)c3)cc2)cc1)Nc1cccc(C2=NCCN2)c1
inactive: dose: 111.0 mg/kg/injection, schedule: Q01DX Z (ip), vehicle: carboxymethylcellulose (CMC) 101 % of control | dose: 120.0 mg/kg/injection, schedule: Q01DX Z (ip), vehicle: carboxymethylcellulose (CMC) 98 % of control | dose: 166.0 mg/kg/injection, schedule: Q01DX Z (ip), vehicle: carboxymethylcellulose (CMC) 101 % of control | dose: 180.0 mg/kg/injection, schedule: Q01DX Z (ip), vehicle: carboxymethylcellulose (CMC) 98 % of control | dose: 250.0 mg/kg/injection, schedule: Q01DX Z (ip), vehicle: carboxymethylcellulose (CMC) 107 % of control | dose: 270.0 mg/kg/injection, schedule: Q01DX Z (ip), vehicle: carboxymethylcellulose (CMC) 101 % of control | dose: 375.0 mg/kg/injection, schedule: Q01DX Z (ip), vehicle: carboxymethylcellulose (CMC) 107 % of control | dose: 405.0 mg/kg/injection, schedule: Q01DX Z (ip), vehicle: carboxymethylcellulose (CMC) 100 % of control

CC(=O)OCC1CCC(NC(=O)NCCF)CC1 (stereo not given)
inactive: dose: 50.0 mg/kg/injection, schedule: Q01DX001 (ip), vehicle: saline with Tween-80 101 % of control | dose: 100.0 mg/kg/injection, schedule: Q01DX001 (ip), vehicle: saline with Tween-80 106 % of control | dose: 200.0 mg/kg/injection, schedule: Q01DX001 (ip), vehicle: saline with Tween-80 95 % of control

CC1(C)OCC(C2OC3OC(C)(C)OC3C2O)O1 (stereo not given)
inactive: dose: 100.0 mg/kg/injection, schedule: Q01DX001 (ip), vehicle: saline 97 % of control | dose: 200.0 mg/kg/injection, schedule: Q01DX001 (ip), vehicle: saline 100 % of control | dose: 400.0 mg/kg/injection, schedule: Q01DX001 (ip), vehicle: saline 100 % of control

COC1OC(CCl)C(OC(=O)c2ccccc2)C(OC(=O)c2ccccc2)C1OS(=O)(=O)c1ccc(C)cc1 (stereo not given)
inactive: dose: 75.0 mg/kg/injection, schedule: Q04DX002 (ip), vehicle: Klucel (hydroxypropylcellulose) (HPC) 87 % of control | dose: 150.0 mg/kg/injection, schedule: Q04DX002 (ip), vehicle: Klucel (hydroxypropylcellulose) (HPC) 87 % of control | dose: 300.0 mg/kg/injection, schedule: Q04DX002 (ip), vehicle: Klucel (hydroxypropylcellulose) (HPC) 97 % of control

CCN=C(NCC)c1ccc(NC(=O)c2ccc(C(=O)Nc3ccc(C(=NCC)NCC)cc3)c(Cl)c2)cc1
inactive: dose: 1.87 mg/kg/injection, schedule: Q01DX Z (ip), vehicle: carboxymethylcellulose (CMC) 101 % of control | dose: 3.75 mg/kg/injection, schedule: Q01DX Z (ip), vehicle: carboxymethylcellulose (CMC) 97 % of control | dose: 7.5 mg/kg/injection, schedule: Q01DX Z (ip), vehicle: carboxymethylcellulose (CMC) 103 % of control

N#Cc1ccc(CCCCCCc2ccc(C#N)cc2)cc1
inactive: dose: 25.0 mg/kg/injection, schedule: Q01DX009 (ip), vehicle: saline with Tween-80 95 % of control | dose: 50.0 mg/kg/injection, schedule: Q01DX001 (ip), vehicle: carboxymethylcellulose (CMC) 101 % of control | [5] 95 % of control | dose: 100.0 mg/kg/injection, schedule: Q01DX001 (ip), vehicle: carboxymethylcellulose (CMC) 106 % of control | [6] 94 % of control | dose: 200.0 mg/kg/injection, schedule: Q01DX001 (ip), vehicle: carboxymethylcellulose (CMC) 110 % of control | dose: 400.0 mg/kg/injection, schedule: Q01DX001 (ip), vehicle: carboxymethylcellulose (CMC) 120 % of control

CCCCOCCOc1ccc(C(=O)O)cc1
inactive: dose: 100.0 mg/kg/injection, schedule: Q01DX001 (ip), vehicle: other 106 % of control | [2] 87 % of control | dose: 200.0 mg/kg/injection, schedule: Q01DX001 (ip), vehicle: other 94 % of control | [3] 94 % of control | dose: 400.0 mg/kg/injection, schedule: Q01DX001 (ip), vehicle: other 103 % of control | [4] 87 % of control

Nc1nc(N)c2nc3c(nc2n1)C(=O)N(c1ccc(C(=O)O)cc1)C3
inactive: dose: 12.5 mg/kg/injection, schedule: Q01DX001 (ip), vehicle: saline 102 % of control | dose: 25.0 mg/kg/injection, schedule: Q01DX001 (ip), vehicle: saline 91 % of control | dose: 50.0 mg/kg/injection, schedule: Q01DX001 (ip), vehicle: saline 102 % of control | [1] 90 % of control

CC[C@@H]1O[C@@H]([C@@H]2CC[C@](O)([C@]3(C)CC[C@@H]([C@@H](C)[C@@]4(O)CC[C@H](C)[C@@H](C[C@@]5(O)O[C@@H]([C@@H](C)[C@H](O)C[C@H]6CC[C@H](C)[C@@H]([C@@H](C)C(=O)O)O6)CC[C@@H]5C)O4)O3)O2)CC[C@@]1(C)O
inactive: dose: 0.09 mg/kg/injection, schedule: Q04DX002 (ip), vehicle: saline 93 % of control | dose: 0.19 mg/kg/injection, schedule: Q04DX002 (ip), vehicle: saline 90 % of control | dose: 0.39 mg/kg/injection, schedule: Q04DX002 (ip), vehicle: saline 87 % of control
